# According to ChEMBL document CHEMBL5724709, “EUbOPEN Chemogenomics Library - IncuCyte” (2024):
# Square brackets hold non-standard residues; d marks the D form. Peptide text beside a SMILES is read from it. * marks the point of attachment. Benzoyl(4-OPh) = O=C(c1ccc(Oc2ccccc2)cc1)*; Benzoyl(4-tBu) = CC(C)(C)c1ccc(C(=O)*)cc1; Lys(Et2) = CCN(CC)CCCC[C@H](N)C(=O)O; d(aIle) = CC[C@H](C)[C@@H](N)C(=O)O; Gly(cPent) = N[C@H](C(=O)O)C1CCCC1; Nle = CCCC[C@H](N)C(=O)O; Cbz = O=C(OCc1ccccc1)*; NH(propargyl) = C#CCN*; Boc = CC(C)(C)OC(=O)*; CH2F = FC*
# Columns and labels:
# Format in all cases: toxicity, cell-based
# U2OS = test: Incucyte cell viability with U2OS; conditions: human, 24 h, 10 µM, compound concentration 10 uM
# HEK-293T = test: Incucyte cell viability with HEK293T; conditions: human, 24 h, 10 µM, compound concentration 10 uM
# Fibroblast = test: Incucyte cell viability with human fibroblast; conditions: 24 h, 10 µM, compound concentration 10 uM
# Further: unitless GR value; below 1 slowed growth and below 0 cell loss.
Compound,Growth Rate (U2OS; replicate number 1),Growth Rate (U2OS; replicate number 2),Growth Rate (HEK-293T; replicate number 1),Growth Rate (HEK-293T; replicate number 2),Growth Rate (Fibroblast; replicate number 1),Growth Rate (Fibroblast; replicate number 2)
CC(=O)N[C@@H](CC(C)C)C(=O)N[C@@H](CCC(=O)O)C(=O)N[C@H](C(=O)N[C@H](C=O)CC(=O)O)C(C)C (Ac-LEVD-aldehyde),0.75,1,0.89,0.82,0.82,0.19
CCCC[C@@H](C=O)NC(=O)[C@H](CC(C)C)NC(=O)[C@H](CC(C)C)NC(C)=O (Ac-Leu-Leu-[Nle]-aldehyde),-0.08,0.62,-0.02,0.18,0.53,1
CC(=O)N[C@H](C(=O)N[C@@H](CC(=O)O)C(=O)N[C@H](C(=O)N[C@@H](C)C(=O)N[C@H](C=O)CC(=O)O)C(C)C)C(C)C (Ac-VDVAD-aldehyde),0.65,0.76,0.65,1,0.52,1
CC[C@H](C)[C@H](NC(=O)[C@H](CCC(=O)O)NC(=O)[C@@H](NC(C)=O)C(C)C)C(=O)N[C@H](C=O)CC(=O)O.O=C(O)C(F)(F)F (Ac-VEID-aldehyde),1,–,0.64,0.97,1,0.22
CC(C)[C@H](NC(=O)[C@H](CCC(=O)O)NC(=O)[C@H](C)NC(=O)OC(C)(C)C)C(=O)N[C@H](C=O)CC(=O)O.O=C(O)C(F)(F)F (Boc-AEVD-aldehyde),1,–,0.66,0.93,0.24,1
COC(=O)CC[C@H](NC(=O)[C@H](C)NC(=O)OCc1ccccc1)C(=O)N[C@H](C(=O)N[C@@H](CC(=O)OC)C(=O)CF)C(C)C (Cbz-AE(OMe)VD(OMe)-CH2F),1,–,0.7,0.98,0.35,1
O=CC1CCCN1C(=O)C1CCCN1C(=O)OCc1ccccc1 (stereo not drawn) (Cbz-Pro-Pro-aldehyde; configuration not given here),0.37,0.84,0.88,0.71,0.22,0.25
COC(=O)CC[C@H](NC(=O)[C@H](Cc1c[nH]c2ccccc12)NC(=O)OCc1ccccc1)C(=O)N[C@@H](Cc1cnc[nH]1)C(=O)N[C@@H](CC(=O)OC)C(=O)CF (Cbz-WE(OMe)HD(OMe)-CH2F),0.82,0.99,0.94,0.95,0.4,1
CCCC(NC(=O)C(CC(C)C)NC(=O)OCc1ccccc1)C(=O)C(=O)NCc1ccccn1 (racemic),1,0.89,0.78,1,0.96,1
C#CCNC(=O)[C@H](CO)NC(=O)[C@H](CCCCN(CC)CC)NC(=O)[C@H](NC(=O)[C@@H](NC(=O)c1ccc(Oc2ccccc2)cc1)C1CCCC1)[C@@H](C)CC ({Benzoyl(4-OPh)}-[Gly(cPent)][d(aIle)][Lys(Et2)]S-{NH(propargyl)}),1,–,0.58,1,1,0.24
CCN(CC)CCCC[C@H](NC(=O)[C@H](CC(C)C)NC(=O)[C@H](C)NC(=O)[C@H](Cc1ccccc1)NC(=O)c1ccc(C(C)(C)C)cc1)C(=O)N[C@@H](CO)C(=O)OC ({Benzoyl(4-tBu)}-FAL[Lys(Et2)]S-OMe),1,–,0.81,0.89,0.92,0.71
CCCN1CCN(c2ccc(C(=O)NC3(C(=O)NCC#N)CCCCC3)cc2)CC1 [BALICATIB],1,0.86,0.79,0.95,1,–
CCS(=O)(=O)N1CC(CC#N)(n2cc(-c3ncnc4[nH]ccc34)cn2)C1 [BARICITINIB],1,0.77,0.96,1,0.11,0.42
CC/C(=C(/c1ccc(/C=C/C(=O)O)cc1)c1ccc2[nH]ncc2c1)c1ccc(F)cc1Cl [BRILANESTRANT],1,0.77,0.82,0.87,1,–
CCCC1O[C@@H]2C[C@H]3[C@@H]4CCC5=CC(=O)C=C[C@]5(C)[C@H]4[C@@H](O)C[C@]3(C)[C@]2(C(=O)CO)O1 (stereo partly drawn) [BUDESONIDE],1,0.58,0.73,0.82,0.7,1
O=C(CCCCCCNC(=O)c1cnc(N(c2ccccc2)c2ccccc2Cl)nc1)NO [CITARINOSTAT],-0.08,0.29,0.9,1,1,0.2

Compound,Growth Rate (U2OS; replicate number 1),Growth Rate (U2OS; replicate number 2),Growth Rate (HEK-293T; replicate number 1),Growth Rate (HEK-293T; replicate number 2),Growth Rate (Fibroblast; replicate number 1),Growth Rate (Fibroblast; replicate number 2)
COc1cc(C)[nH]c(=O)c1CNC(=O)c1c(C)n([C@H](C)C2CCN(CC(F)(F)F)CC2)c2ccccc12 [CPI-1205],0.59,0.83,0.61,0.95,0.99,0.13
CC(=O)O[C@]1(C(C)=O)CC[C@H]2[C@@H]3C=C(Cl)C4=CC(=O)[C@@H]5C[C@@H]5[C@]4(C)[C@H]3CC[C@@]21C [CYPROTERONE ACETATE],1,0.72,0.61,0.76,0.21,0.15
Cc1nc(Nc2ncc(C(=O)Nc3c(C)cccc3Cl)s2)cc(N2CCN(CCO)CC2)n1 [DASATINIB ANHYDROUS],-0.47,-0.3,-0.16,0.04,1,0.23
CC/C(=C(/CC)c1ccc(O)cc1)c1ccc(O)cc1 [DIETHYLSTILBESTROL],1,0.74,0.72,0.87,0.45,0.22
CN1CCN(c2ccc3nc(-c4c(N)c5c(F)cccc5[nH]c4=O)[nH]c3c2)CC1 [DOVITINIB],-0.35,-0.04,-0.39,-0.2,1,–
Nc1ccccc1NC(=O)c1ccc(CNC(=O)OCc2cccnc2)cc1 [ENTINOSTAT],-0.2,0.57,1,–,-0.02,0.43
COC(=O)[C@@H]1CC2=CC(=O)CC[C@]2(C)[C@@]23O[C@@H]2C[C@@]2(C)[C@@H](CC[C@@]24CCC(=O)O4)[C@H]13 [EPLERENONE],1,–,0.61,0.95,0.25,1
CC(=O)N1CCN([C@H]2CCC[C@@H](NC(=O)c3cc4c(F)ccc(C)c4[nH]3)C2)CC1 [EZM-0414],0.87,0.93,0.77,0.94,0.85,0.56
COc1cc(Nc2ncc(F)c(Nc3ccc4c(n3)N(COP(=O)([O-])[O-])C(=O)C(C)(C)O4)n2)cc(OC)c1OC.O.O.O.O.O.O.[Na+].[Na+] [FOSTAMATINIB DISODIUM],-0.2,-0.05,0.05,0.51,0.41,-0.16
C[C@]12CC[C@@H]3c4ccc(O)cc4C[C@@H](CCCCCCCCC[S+]([O-])CCCC(F)(F)C(F)(F)F)[C@H]3[C@@H]1CC[C@@H]2O (stereo partly drawn) [FULVESTRANT],0.86,0.65,0.5,0.53,1,–
C=C(C)[C@@H](CC=C(C)C)C[C@@]12C[C@@H](CC=C(C)C)C(C)(C)[C@@](CC=C(C)C)(C(=O)C(C(=O)c3ccc(O)c(O)c3)=C1O)C2=O [GARCINOL],1,0.75,0.69,0.83,0.23,1
O=C(NO)c1ccc(CN(c2cnccn2)c2cnccn2)cc1 [KA-2507],-0.27,0.83,1,–,1,0.97
C[C@]12O[C@H](C[C@]1(O)CO)n1c3ccccc3c3c4c(c5c6ccccc6n2c5c31)CNC4=O [LESTAURTINIB],0.59,0.46,0.16,0.41,1,–
CCNC(=O)c1noc(-c2cc(C(C)C)c(O)cc2O)c1-c1ccc(CN2CCOCC2)cc1 [LUMINESPIB],-0.21,0,-0.29,-0.15,-0.02,-0.27
CNc1ncc2cc(-c3cc(NC(=O)NCCC(C)(C)C)c(F)cc3C)c(C)nc2n1 [LY-3009120],-0.28,0.07,0.3,0.63,-0.76,-0.55
CC#C[C@]1(O)CC[C@H]2[C@@H]3CCC4=CC(=O)CCC4=C3[C@@H](c3ccc(N(C)C)cc3)C[C@@]21C [MIFEPRISTONE],0.84,0.66,0.49,1,1,–
